Reference: patent US6716819B2, “Use of xylitol to reduce ionic strength and activate endogenous antimicrobials for prevention and treatment of infections” (University of Iowa Research Foundation, priority 2000, dated 2004)

Key:
[1] = tested on: bacteria from the nasal surface; experiment: Growth of normal nasal flora from nasal swabs in M9 media; format: cell-based; details: M9 media with 100 mM xylitol, 72 hours at 37° C.
Protocol: (§1) FIGS. 5(A-G). Effect of xylitol on growth of different airway pathogens. A, B and C. Growth of P. aeruginosa (A), S. aureus, (B), and coagulase-negative Staphylococcus (C) were measured as O. D. M9 media alone is indicated by open triangle. Xylitol (closed circle), or succinate, mannitol, or sucrose (open circles), were added to M9 media at 100 mM as indicated. D. Nasal swabs were collected and cultured for 3 days in Lauria-Bertani media (open circles), in minimal M9 media (open squares), or in M9 media supplemented with 100 mM xylitol (closed circles). E, F and G. P. aeruginosa (E), S. aureus (F), and coagulase-negative Staphylococcus (G) were cultured in Lauria-Bertani media alone (open triangles), Lauria-Bertani media with 100 mM xylitol (closed circles), and Lauria-Bertani media containing tobramycin or levofloxacin (open circles).
To test the effect of xylitol on growth of normal nasal flora in a carbon-starved media, nasal swabs were obtained from 3 normal volunteers and the swabs were inoculated into M9 media alone, M9 with 100 mM xylitol, or Lauria-Bertani media. The media were incubated at 37° C. for 72 hours and the O.D. were recorded.
It was tested whether xylitol would support bacterial growth. P. aeruginosa were placed in M9 media, which lacks a carbon source. […] In contrast, there was no growth of P. aeruginosa when M9 media was supplemented with xylitol. […]

S. aureus = experiment: Growth in carbon-starved M9 media (O.D.); format: cell-based; details: M9 media supplemented at 100 mM
Protocol: as §1
To test the effect of xylitol on growth of different airway pathogens in a carbon-starved media, P. aeruginosa, S. aureus, and coagulase-negative Staphylococcus were grown overnight in Lauria-Bertani medium. The bacteria were then centrifuged and resuspended in M9 media containing either 100 mM succinate, mannitol, or sucrose, respectively, and grown overnight at 37° C. […] The optical density (O.D.) was measured after 0, 1, 2, and 4 hours at 600 nm on a Beckman DU640 Spectrophotometer (Schaumburg, Ill.). […]

[2] = in chewing gum, lozenges, or syrup; cited from earlier work
[3] = incorporated in chewing gum; cited from earlier work

**Q.** What does the source list for `OC[C@@H](O)[C@H](O)[C@@H](O)CO` [xylitol]?
**A.** growth of bacteria from nasal swabs [1]: no growth; growth of S. aureus (S. aureus): failed to support growth; decrease in incidence of acute otitis media [2]: 20-40%; effect on dental caries [3]: prevent dental caries
